A word on the Cmax: it is the maximum level reached in the sampled fluid or tissue. As usually defined, the Tmax is the time from dosing to the highest level. The term IC50 denotes the concentration that gives 50% inhibition. Read a high IC50 as weaker potency in that assay.

For one data set, the system named is rat liver cytosol. Nature of the data set: Effect of inhibitors on chelerythrine iminium bond reduction to DHCHE by rat liver cytosol. Format: in vitro ADME. As to conditions: 100 μmol/L inhibitor, 0.25 mg/mL cytosol protein, 2 mM NADPH, 10 μg/mL chelerythrine, 15 min. As for the experimental part: In brief, the incubation mixture consisted of 0.25 mg/mL cytosol protein, 5 mM MgCl2, 100 μmol/L inhibitor, and 2 mM NADPH in 0.05 M Tris-HCl buffer (pH 7.4). The inhibitors were dicoumarol (quinone oxidoreductase 1), quercetin (quinone oxidoreductase 2, carbonyl reductase), menadione (aldehyde oxidase, carbonyl reductase), and 7-hydroxycoumarin (xanthine oxidase). The reaction was preincubated at 37°C for 5 min. […] The incubation mixtures without the inhibitor or cytosol protein acted as the blank control. The reaction was stopped by adding 200 μL ice-cold acetonitrile after 15 min, and the mixture was vortexed and centrifuged at 12,000 g for 15 min. […] Phenomenex Co. USA). The mobile phase consisted of a 30/70 (v/v) mixture of solvent A (0.2% aqueous acetic acid solution) and solvent B (acetonitrile). The injection dose was 10 μl and the flow rate was 1 mL/min. The column temperature was set to 35°C and the detection wavelength was set to 285 nm. The DHCHE standard curve varied linearly in the concentration range from 0.050 to 10 μg/mL. […] The lower limit of quantification was 0.050 μg/mL.

Data set [1] in a line: Metabolite profile of sanguinarine in plasma, urine and feces of rats after intragastric M. cordata extracts. The format is in vivo, rat.
Data set [2] in a line: Chelerythrine/sanguinarine and metabolites in rat tissues after 3 weeks of intragastric M. cordata extracts (HPLC/QqTOF-MS). The format is in vivo. As for the experimental part: Tissue samples including cecal contents, lung, heart, liver, kidney, and spleen were collected at 24 and 48 h after the last administration and stored at −70°C.
(§1) The injection volume was 5 μL.
The quarantine window was set at 1 amu.

Data set [3] has as its target T1, NAD(P)H quinone oxidoreductase (NQO1) (Rattus norvegicus, UniProt P05982).
T1 construct: 50 μg/mL rat liver cytosol; from tissue; host or cells: rat liver cytosol
T1 sequence (P05982 2-274 limits assumed): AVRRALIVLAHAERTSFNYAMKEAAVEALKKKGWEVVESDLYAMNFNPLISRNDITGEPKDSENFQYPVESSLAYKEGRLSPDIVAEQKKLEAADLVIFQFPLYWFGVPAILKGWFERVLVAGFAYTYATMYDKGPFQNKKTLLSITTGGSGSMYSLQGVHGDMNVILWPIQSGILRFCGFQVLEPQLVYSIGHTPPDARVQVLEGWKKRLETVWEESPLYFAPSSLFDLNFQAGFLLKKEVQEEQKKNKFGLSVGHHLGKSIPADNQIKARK
In words: In vitro inhibition of rat cytosolic NQO1 activity (DCPIP reduction). The format is biochemical. As to conditions: for NQO1 activities: compound 40.00 μM, control 67.14 ± 4.82; for NQO1 activities / Effect on NQO1 activity: rat liver cytosol; for Effect on NQO1 activity: in vitro. The method, then:
Any change in absorbance was monitored at 620 nm, and NQO1 activity was calculated by using the extinction coefficient for DCPIP (ε = 21 mM^−1cm^−1) and expressed as nanomles of DCPIP reduced per minute per milligram of protein.
The inhibitory effects of sanguinarine and chelerythrine were determined by the incubation of the reaction mixture with or without substrate. […] All of the incubations and sample preparations were carried out as described for the NQO1 assay above.

A further data set can be described thus: in vivo. As for the experimental part: Tissue distribution was carried out in eighteen SD rats (160–180 g, nine males and nine females). Twelve rats (six male and six female) were intragastrically administered with M. cordata extracts at a single dosage of 5 mg/kg (containing about 2 mg/kg dose of sanguinarine and 1 mg/kg dose of chelerythrine) in water with the dissolving aid of Tween-80 for 3 weeks. Three male and three female rats were given the same amount of water as the blank control group by intragastric administration.
(§2) The preparations of plasma, urine, feces, and tissues were pretreatments according to our current study ([19]).
The controls of the operating parameters were as follows: capillary voltage, 3,500 V; EM voltage, 200 V; dry gas (N2) flow rate, 12 L/min; ion source temperature, 350°C; nebulizer, 25 psi.
The proposed method was validated by evaluation of specificity, accuracy, precision, LOD, and LOQ.

Data set [4] in a line: Metabolite profile of chelerythrine in plasma, urine and feces of rats after intragastric chelerythrine (HPLC/QqTOF-MS). The method, then:
Ten SD rats (160–180 g, five males and five females) were individually placed in stainless steel metabolic cages. […] Chelerythrine in water with the dissolving aid of Tween-80 was intragastrically administered to rats at a dose of 10 mg/kg. One milliliter whole blood samples were collected from retro orbital sinus with a heparinized blood collection tube at 3 h following drug dosing. Each collected blood sample was centrifuged at 3,000 rpm at 4°C for 10 min to obtain plasma samples. […] All samples were collected from female and male rats and stored at −70°C.
as §2, §1
Nitrogen was used as atomization gas, and the flow rate was 9 L/min. The parameters of the mass spectrometer were as follows: nozzle voltage 1 kv, capillary voltage 4.0 kv, sheath gas temperature 350°C, sheath gas flow rate 11 L/min, nebulizer voltage 35 psig. The quarantine window was set at 1 amu. The instrument automatically performed the internal mass calibration though the automated calibrate transfer system. […] All the data acquisition was controlled by Agilent Mass Hunter software (version B.01.03 Build 1.3.157.0 2), and the Agilent Mass Hunter software (Qualitative Analysis B.04.0) was used to accurately take mass measurements of each peak from the total ion chromatograms. Then, these metabolites were subjected to accurate EIC, and the acceptance or rejection was decided according to the peak appearing in the EIC. Structural elucidations of chelerythrine metabolites were carried out on the basis of the mass change from the metabolite or parent drug, the predicted elemental compositions, and the interpretation of accurate MS/MS spectra.

Details of data set [5]: method as in none printed. As to conditions: no species, dose or reference given; cited from earlier work.

Each structure is given as a SMILES string.

In the case of `CC1=CC(=O)c2ccccc2C1=O` [menadione], the “Effect on iminium bond reduction of chelerythrine (DHCHE formation) in rat liver cytosol” value (“Effect on iminium bond reduction” below) in the data set with rat liver cytosol is reported as “could inhibit”.
For `CN1Cc2c(ccc3c2OCO3)-c2ccc3cc4c(cc3c21)OCO4` [Metabolite S1, dihydrosanguinarine], the “Observed in rats in vivo (feces 0–24 h)” value in data set [1] (5 mg/kg M. cordata extracts intragastric) is listed as “observed”.
For the compound `O=c1ccc2ccc(O)cc2o1` [7-hydroxycoumarin], in the data set on rat liver cytosol, the “Effect on iminium bond reduction” value is given as “could inhibit”.
On the same count and under the same terms, the entry for `O=c1oc2ccccc2c(O)c1Cc1c(O)c2ccccc2oc1=O` [Dicoumarol, dicoumarol] is “could inhibit”.
For `COc1ccc2c(c[n+](C)c3c4cc5c(cc4ccc23)OCO5)c1OC` [Chelerythrine], in data set [2], the “Found in spleen, lung, kidney, liver or heart by HPLC/QqTOF-MS” value was “no sanguinarine and chelerythrine or their metabolites were found”. Further, in data set [3], the NQO1 activities is given as 64.90 ± 4.24 nanomolars of 2,6-dichlorophenolindophenol reduced per minute per milligram of protein and the “Effect on NQO1 activity” value is given as “weak impact”. Moreover, in the data set “in vivo” (both, SD, rat, in vivo), the “Concentrations in (others) tissues” value is under 15 ng/g. The concentration at 24 h in the data set “in vivo” (both, SD, rat, in vivo, Concentration in spleen) is 44 ng/mL. The concentration at 48 h in “in vivo” (both, SD, rat, in vivo, Concentration in the liver) is 20.6 ng/mL. Also, the “Detection in plasma” value in data set [4] (male and female rats, three hours after intragastric chelerythrine) was “no parent drug and metabolites were detected”. For the same compound, in data set [5], the Cmax was 5.06 ng/mL, the T1/2 is given as 2.82 h and the Tmax is listed as 1.67 h.
Take `C[n+]1cc2c3c(ccc2c2ccc4cc5c(cc4c21)OCO5)OCO3` [Sanguinarine]: the “Observed in plasma at 3 h and urine of 0–24 h” value in data set [1] (rats, after intragastric M. cordata extracts) is “No parent drug or metabolites were observed”. The “Found in spleen, lung, kidney, liver or heart by HPLC/QqTOF-MS” value in data set [2] was “no sanguinarine and chelerythrine or their metabolites were found”. Also, in data set [3], the NQO1 activities is listed as 45.08 ± 4.34 nanomolars of 2,6-dichlorophenolindophenol reduced per minute per milligram of protein. Besides, half-maximal inhibition in data set [3] (rat liver cytosol 50 μg/mL, 40 μM DCPIP, 0.2 mM NADH, 0–40 μM compound) (IC50) required 112 ± 6.17 µM. Further, the “Effect on NQO1 activity” value in data set [3] was “statistically significant decline”. Also, the concentration at 24 h in the data set “in vivo” (both, SD, rat, in vivo, 5 mg/kg, Residue in heart, 24 h after last dose, M. cordata extracts 5 mg/kg intragastric for 3 weeks) turned out to be 2.91 ng/g; in “in vivo” (both, SD, rat, in vivo, 5 mg/kg, Residue in kidney, 24 h after last dose, M. cordata extracts 5 mg/kg intragastric for 3 weeks) it was 3.77 ng/g; in “in vivo” (both, SD, rat, in vivo, 5 mg/kg, Residue in liver, 24 h after last dose, M. cordata extracts 5 mg/kg intragastric for 3 weeks), 10.4 ng/g; in “in vivo” (both, SD, rat, in vivo, 5 mg/kg, Residue in lung, 24 h after last dose, M. cordata extracts 5 mg/kg intragastric for 3 weeks), 2.29 ng/g; in “in vivo” (both, SD, rat, in vivo, 5 mg/kg, Residue in spleen, 24 h after last dose, M. cordata extracts 5 mg/kg intragastric for 3 weeks) it was 2.01 ng/g. Further, the concentration at 48 h in the data set “in vivo” (both, SD, rat, in vivo, 5 mg/kg, Residue in heart, 48 h after last dose, M. cordata extracts 5 mg/kg intragastric for 3 weeks) turned out to be 2.57 ng/g; in the data set “in vivo” (both, SD, rat, in vivo, 5 mg/kg, Residue in kidney, 48 h after last dose, M. cordata extracts 5 mg/kg intragastric for 3 weeks) it was 5.65 ng/g; in the data set “in vivo” (both, SD, rat, in vivo, 5 mg/kg, Residue in liver, 48 h after last dose, M. cordata extracts 5 mg/kg intragastric for 3 weeks), 9.8 ng/g; in the data set “in vivo” (both, SD, rat, in vivo, 5 mg/kg, Residue in lung, 48 h after last dose, M. cordata extracts 5 mg/kg intragastric for 3 weeks) it was 2.01 ng/g; in the data set “in vivo” (both, SD, rat, in vivo, 5 mg/kg, Residue in spleen, 48 h after last dose, M. cordata extracts 5 mg/kg intragastric for 3 weeks), 1.91 ng/g. Also, the “Concentrations in other tissues” value in “in vivo” (tissues other than chelerythrine in liver 48 h and spleen 24 h) was under 11 ng/g.
Take `COc1ccc2c(c1OC)CN(C)c1c-2ccc2cc3c(cc12)OCO3` [DHCHE, dihydrochelerythrine]: in data set [4] (rat, in vivo), the “Found in feces” value was “found” and the “Observed in feces” value is reported as “observed”.
`O=c1c(O)c(-c2ccc(O)c(O)c2)oc2cc(O)cc(O)c12` [quercetin]: in the data set with rat liver cytosol, the “Effect on iminium bond reduction” value is recorded as “could inhibit”.

The values are drawn from publication PMC8187775, “Metabolism and Tissue Distribution of Chelerythrine and Effects of Macleaya Cordata Extracts on Liver NAD(P)H Quinone Oxidoreductase” (Frontiers in Veterinary Science, 2021).
